In the supplement of paper PMC10307832:

These cell lines were tested with CC1=CC(=C(N1C2=CC=C(C=C2)Cl)C)C(=O)CN3CCCCC3 [IU1-47] + CC(=O)Nc1cccc(-n2c(=O)n(C3CC3)c(=O)c3c(Nc4ccc(I)cc4F)n(C)c(=O)c(C)c32)c1 [Trametinib] (partner 0.02 µM) (assay: relative viability (nuclei count vs DMSO), 5 days (fraction); higher = more cells survive). Settings: first compound 0.08 µM.
Method in brief: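 Lung cancer cell lines in 1536-well plates were dosed by pin tool the day after seeding, either with one drug alone or with a fixed anchor-drug dose plus five library-drug doses (not always all listed) in √10 steps. After 5 days, cells were fixed and their nuclei stained in one step (final 0.05% Triton X-100, 1% formaldehyde, 1 ug/ml Hoechst), then counted on 4× images. Relative viability is the nuclei count in treated wells divided by that in vehicle wells. Values are medians of duplicate plates.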

First: NCI-H522
Second: NCI-H727
The relative viability of the first is higher: 0.826 for the first, 0.438 for the second.

Going from NCI-H1650 to NCI-H1993, the relative viability rises from 0.515 to 0.545.

Going from SW 1573 to NCI-H838, the relative viability falls from 0.656 to 0.521.

Compared with LCLC-103H, NCI-H520 is lower in relative viability: 0.71 for the first, 0.661 for the second.

Going from NCI-H2126 to EMC-BAC-2, the relative viability rises from 0.642 to 0.978.

Compared with NCI-H2085, HCC-366 is lower in relative viability: 0.515 for the first, 0.402 for the second.

First: NCI-H1666
Second: NCI-H596
The relative viability of the first is higher: 1 for the first, 0.765 for the second.

Compared with LK-2, NCI-H2087 is lower in relative viability: 0.932 for the first, 0.172 for the second.

Compared with NCI-H2342, SK-MES-1 is lower in relative viability: 0.85 for the first, 0.585 for the second.

First: H3255
Second: COR-L23
The relative viability of the first is higher: 0.636 for the first, 0.579 for the second.

Going from COR-L 105 to LOU-NH91, the relative viability rises from 0.522 to 0.904.

Going from ChaGo-K-1 to NCI-H2170, the relative viability rises from 0.927 to 0.991.

Compared with NCI-H2405, SW 900 is higher in relative viability: 0.69 for the first, 0.876 for the second.

Going from NCI-H1648 to NCI-H1395, the relative viability rises from 0.624 to 1.16.

Going from CAL-12T to NCI-H2228, the relative viability rises from 0.353 to 0.614.

Going from NCI-H1793 to NCI-H1944, the relative viability rises from 0.42 to 0.453.

Cell Line NCI-H358 has a relative viability of 0.129.

Same assay, conditions: first compound 0.253 µM

Going from NCI-H522 to NCI-H727, the relative viability falls from 0.747 to 0.349.

Compared with NCI-H1650, NCI-H1993 is lower in relative viability: 0.766 for the first, 0.613 for the second.

Compared with SW 1573, NCI-H838 is lower in relative viability: 0.59 for the first, 0.472 for the second.

Compared with LCLC-103H, NCI-H520 is lower in relative viability: 0.817 for the first, 0.671 for the second.

Compared with NCI-H2126, EMC-BAC-2 is higher in relative viability: 0.595 for the first, 0.948 for the second.

First: NCI-H2085
Second: HCC-366
The relative viability of the first is higher: 0.471 for the first, 0.431 for the second.

Compared with NCI-H1666, LK-2 is lower in relative viability: 0.871 for the first, 0.834 for the second.

Compared with NCI-H2087, NCI-H2342 is higher in relative viability: 0.187 for the first, 0.882 for the second.

Compared with SK-MES-1, H3255 is higher in relative viability: 0.606 for the first, 0.643 for the second.

Compared with COR-L23, COR-L 105 is lower in relative viability: 0.578 for the first, 0.422 for the second.

Compared with LOU-NH91, ChaGo-K-1 is higher in relative viability: 0.845 for the first, 0.869 for the second.

First: NCI-H2170
Second: NCI-H2405
The relative viability of the first is higher: 0.913 for the first, 0.702 for the second.

Going from NCI-H1648 to NCI-H1395, the relative viability rises from 0.535 to 1.13.

First: CAL-12T
Second: NCI-H2228
The relative viability of the first is lower: 0.368 for the first, 0.415 for the second.

Compared with NCI-H1944, NCI-H358 is lower in relative viability: 0.473 for the first, 0.13 for the second.

Same assay, conditions: first compound 0.8 µM

Going from NCI-H522 to NCI-H727, the relative viability falls from 0.708 to 0.369.

Going from NCI-H1650 to NCI-H1993, the relative viability falls from 0.612 to 0.564.

First: SW 1573
Second: NCI-H838
The relative viability of the first is higher: 0.683 for the first, 0.581 for the second.

Compared with LCLC-103H, NCI-H520 is higher in relative viability: 0.701 for the first, 0.821 for the second.

Going from NCI-H2126 to EMC-BAC-2, the relative viability rises from 0.592 to 0.942.

Going from NCI-H2085 to HCC-366, the relative viability falls from 0.577 to 0.394.

Compared with NCI-H1666, NCI-H596 is lower in relative viability: 0.851 for the first, 0.779 for the second.

Going from LK-2 to NCI-H2087, the relative viability falls from 0.772 to 0.203.

First: NCI-H2342
Second: SK-MES-1
The relative viability of the first is higher: 1.05 for the first, 0.567 for the second.

Going from H3255 to COR-L23, the relative viability falls from 0.7 to 0.595.

Compared with COR-L 105, LOU-NH91 is higher in relative viability: 0.45 for the first, 0.844 for the second.

Compared with ChaGo-K-1, NCI-H2170 is higher in relative viability: 0.958 for the first, 1 for the second.

First: NCI-H2405
Second: SW 900
The relative viability of the first is lower: 0.762 for the first, 0.783 for the second.

Compared with NCI-H1648, NCI-H1395 is higher in relative viability: 0.463 for the first, 1.06 for the second.

Going from CAL-12T to NCI-H2228, the relative viability rises from 0.309 to 0.699.

Going from NCI-H1793 to NCI-H1944, the relative viability falls from 0.554 to 0.414.

Work on NCI-H358 yielded a relative viability of 0.128.

Same assay, conditions: first compound 2.53 µM

First: NCI-H522
Second: NCI-H727
The relative viability of the first is higher: 0.715 for the first, 0.375 for the second.

Going from NCI-H1650 to NCI-H1993, the relative viability falls from 0.62 to 0.471.

Compared with SW 1573, NCI-H838 is lower in relative viability: 0.721 for the first, 0.501 for the second.

Compared with LCLC-103H, NCI-H520 is lower in relative viability: 0.647 for the first, 0.456 for the second.

Going from NCI-H2126 to EMC-BAC-2, the relative viability rises from 0.498 to 1.

Compared with NCI-H2085, HCC-366 is lower in relative viability: 0.614 for the first, 0.423 for the second.

Compared with NCI-H1666, NCI-H596 is lower in relative viability: 0.916 for the first, 0.834 for the second.

First: LK-2
Second: NCI-H2087
The relative viability of the first is higher: 0.545 for the first, 0.195 for the second.

Going from NCI-H2342 to SK-MES-1, the relative viability falls from 0.973 to 0.629.

Compared with COR-L23, COR-L 105 is lower in relative viability: 0.534 for the first, 0.461 for the second.

Compared with LOU-NH91, ChaGo-K-1 is higher in relative viability: 0.795 for the first, 0.813 for the second.

First: NCI-H2170
Second: NCI-H2405
The relative viability of the first is higher: 0.9 for the first, 0.672 for the second.

Going from SW 900 to NCI-H1648, the relative viability falls from 0.881 to 0.407.

First: NCI-H1395
Second: CAL-12T
The relative viability of the first is higher: 0.914 for the first, 0.289 for the second.

First: NCI-H2228
Second: NCI-H1793
The relative viability of the first is lower: 0.454 for the first, 0.513 for the second.

Going from NCI-H1944 to NCI-H358, the relative viability falls from 0.386 to 0.135.

Same assay, conditions: first compound 8 µM

Going from NCI-H522 to NCI-H727, the relative viability falls from 0.865 to 0.368.

Compared with NCI-H1650, NCI-H1993 is lower in relative viability: 0.459 for the first, 0.0511 for the second.

Compared with SW 1573, NCI-H838 is higher in relative viability: 0.489 for the first, 0.53 for the second.

Going from LCLC-103H to NCI-H520, the relative viability falls from 0.7 to 0.633.

First: NCI-H2126
Second: EMC-BAC-2
The relative viability of the first is lower: 0.534 for the first, 0.946 for the second.

Going from NCI-H2085 to HCC-366, the relative viability falls from 0.523 to 0.323.

Compared with NCI-H1666, NCI-H596 is lower in relative viability: 0.901 for the first, 0.677 for the second.

Compared with LK-2, NCI-H2087 is lower in relative viability: 0.831 for the first, 0.229 for the second.

First: NCI-H2342
Second: SK-MES-1
The relative viability of the first is higher: 0.89 for the first, 0.584 for the second.

Going from H3255 to COR-L23, the relative viability rises from 0.587 to 0.788.

Going from COR-L 105 to LOU-NH91, the relative viability rises from 0.459 to 0.749.

First: ChaGo-K-1
Second: NCI-H2170
The relative viability of the first is higher: 0.814 for the first, 0.638 for the second.

Going from NCI-H2405 to SW 900, the relative viability rises from 0.622 to 0.716.

Compared with NCI-H1648, NCI-H1395 is higher in relative viability: 0.391 for the first, 0.803 for the second.

First: CAL-12T
Second: NCI-H2228
The relative viability of the first is lower: 0.32 for the first, 0.399 for the second.
